Measurements taken from PubChem BioAssay (NCI).
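A five-concentration, 48-hour dose response in 96-well plates underlies each endpoint, interpolated linearly between surrounding concentrations. GI50 is the concentration that inhibits growth by half. Definition used: TGI = concentration required for complete inhibition of growth.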

Key:
Experiment in all cases: NCI-60 cell line screen, 48 h
CAKI-1 renal = system: CAKI-1 renal
EKVX NSCLC = system: EKVX NSCLC
IGROV1 ovarian = system: IGROV1 ovarian
LOX IMVI melanoma = system: LOX IMVI melanoma
NCI-H226 lung = system: NCI-H226 lung
OVCAR-5 ovarian = system: OVCAR-5 ovarian
RXF 393 renal = system: RXF 393 renal
SK-OV-3 ovarian = system: SK-OV-3 ovarian
SNB-19 CNS = system: SNB-19 CNS
UACC-62 melanoma = system: UACC-62 melanoma

## CC1(C)N=C(N)N=C(N)N1c1ccc(OCCCNC(=O)Nc2ccc(S(=O)(=O)F)cc2)c(Cl)c1
CAKI-1 renal
  GI50: 17900 nM
  TGI: > 95 µM
EKVX NSCLC
  GI50: 874 nM
  TGI: > 100 µM
IGROV1 ovarian
  GI50: 281 nM
  TGI: > 100 µM
LOX IMVI melanoma
  GI50: 120 nM
  TGI: > 100 µM
NCI-H226 lung
  GI50: 11.2 µM
  TGI: > 100 µM
OVCAR-5 ovarian
  GI50: 419 nM
  TGI: > 100 µM
RXF 393 renal
  GI50: 12.9 µM
  TGI: > 100 µM
SK-OV-3 ovarian
  GI50: 8.83 µM
  TGI: > 100 µM
SNB-19 CNS
  GI50: 1080 nM
  TGI: > 100 µM
UACC-62 melanoma
  GI50: 268 nM
  TGI: > 100 µM

## CN(C)CC1CC/C(=C\c2ccc(Cl)c(Cl)c2)C1=O (centres undefined)
CAKI-1 renal
  TGI: 56.1 µM
EKVX NSCLC
  TGI: > 58.7 µM
IGROV1 ovarian
  TGI: > 69.6 µM
LOX IMVI melanoma
  TGI: 18.4 µM
NCI-H226 lung
  TGI: > 100 µM
OVCAR-5 ovarian
  TGI: > 86.8 µM
RXF 393 renal
  TGI: > 61.8 µM
SK-OV-3 ovarian
  TGI: > 100 µM
SNB-19 CNS
  TGI: > 56.1 µM
UACC-62 melanoma
  TGI: 31.5 µM

## Cc1ccc(N)c(S)c1
CAKI-1 renal
  TGI: 85 µM
EKVX NSCLC
  TGI: 31.5 µM
IGROV1 ovarian
  TGI: 31.5 µM
LOX IMVI melanoma
  TGI: 30 µM
NCI-H226 lung
  TGI: 49.1 µM
OVCAR-5 ovarian
  TGI: 42 µM
RXF 393 renal
  TGI: 30.8 µM
SK-OV-3 ovarian
  TGI: 70.8 µM
SNB-19 CNS
  TGI: 36.7 µM
UACC-62 melanoma
  TGI: 32.7 µM

## COc1ccc(C2=NN(C(N)=S)C(c3ccc4c(c3)OCO4)C2)cc1 (centres undefined)
CAKI-1 renal
  GI50: 2600 nM
  TGI: 8.91 µM
EKVX NSCLC
  GI50: 2540 nM
  TGI: 37.9 µM
IGROV1 ovarian
  GI50: 2420 nM
  TGI: 6.8 µM
LOX IMVI melanoma
  GI50: 2190 nM
  TGI: 4.99 µM
NCI-H226 lung
  GI50: 2.49 µM
  TGI: 6.84 µM
OVCAR-5 ovarian
  GI50: 2790 nM
  TGI: 21.9 µM
RXF 393 renal
  GI50: 4.28 µM
  TGI: > 100 µM
SK-OV-3 ovarian
  GI50: 2.35 µM
  TGI: 6.12 µM
SNB-19 CNS
  GI50: 3130 nM
  TGI: 22.8 µM
UACC-62 melanoma
  GI50: 3790 nM
  TGI: 21.1 µM

## NC1=C(O)c2cccc3cccc(c23)C1=O
CAKI-1 renal
  TGI: > 100 µM
EKVX NSCLC
  TGI: > 100 µM
IGROV1 ovarian
  TGI: > 100 µM
LOX IMVI melanoma
  TGI: > 100 µM
NCI-H226 lung
  TGI: > 100 µM
OVCAR-5 ovarian
  TGI: > 100 µM
RXF 393 renal
  TGI: > 100 µM
SK-OV-3 ovarian
  TGI: > 100 µM
SNB-19 CNS
  TGI: > 100 µM
UACC-62 melanoma
  TGI: > 100 µM

## C[N+]1([O-])C2CCC1CC(OC(=O)C(CO)c1ccccc1)C2 (centres undefined)
CAKI-1 renal
  TGI: > 100 µM
EKVX NSCLC
  TGI: > 100 µM
IGROV1 ovarian
  TGI: > 100 µM
LOX IMVI melanoma
  TGI: > 100 µM
NCI-H226 lung
  TGI: > 100 µM
OVCAR-5 ovarian
  TGI: > 100 µM
RXF 393 renal
  TGI: > 100 µM
SK-OV-3 ovarian
  TGI: > 100 µM
SNB-19 CNS
  TGI: > 100 µM
UACC-62 melanoma
  TGI: > 100 µM

## COc1cc(/C=C/C(=O)c2cccc(-n3cc(-c4ccccc4)[nH]c3=O)c2)cc(OC)c1OC
CAKI-1 renal
  GI50: 1750 nM
  TGI: 4.57 µM
EKVX NSCLC
  GI50: 2300 nM
  TGI: 11.4 µM
IGROV1 ovarian
  GI50: 2000 nM
  TGI: 4.7 µM
LOX IMVI melanoma
  GI50: 489 nM
  TGI: 1.67 µM
NCI-H226 lung
  GI50: 14.6 µM
  TGI: 97.4 µM
OVCAR-5 ovarian
  GI50: 1880 nM
  TGI: 3.74 µM
RXF 393 renal
  GI50: 1.71 µM
  TGI: 3.53 µM
SK-OV-3 ovarian
  GI50: 3.27 µM
  TGI: 11.3 µM
SNB-19 CNS
  GI50: 2350 nM
  TGI: 5.69 µM
UACC-62 melanoma
  GI50: 1520 nM
  TGI: 2.98 µM

## O=C(O)/C=C\C(=O)Nc1ccc2c(c1)-c1ccccc1C2
CAKI-1 renal
  TGI: > 100 µM
EKVX NSCLC
  TGI: > 100 µM
IGROV1 ovarian
  TGI: > 100 µM
LOX IMVI melanoma
  TGI: > 100 µM
NCI-H226 lung
  TGI: 78.2 µM
OVCAR-5 ovarian
  TGI: > 100 µM
RXF 393 renal
  TGI: > 100 µM
SK-OV-3 ovarian
  TGI: > 100 µM
SNB-19 CNS
  TGI: > 100 µM
UACC-62 melanoma
  TGI: > 100 µM

## CC(C)=CC[C@@H]1CC2(CC=C(C)C)C(=O)C(OC3(C(=O)c4ccccc4)C(=O)C4(CC=C(C)C)C[C@@H](CC=C(C)C)C(C)(C)C(CC=C(C)C)(C4=O)C3=O)(C(=O)c3ccccc3)C(=O)C(CC=C(C)C)(C2=O)C1(C)C (some centres undefined)
CAKI-1 renal
  GI50: 1490 nM
  TGI: 5.95 µM
EKVX NSCLC
  GI50: 1200 nM
  TGI: 4.2 µM
IGROV1 ovarian
  GI50: 1630 nM
  TGI: 7 µM
LOX IMVI melanoma
  GI50: 1230 nM
  TGI: 3.24 µM
NCI-H226 lung
  GI50: 1.34 µM
  TGI: 3.9 µM
OVCAR-5 ovarian
  GI50: 1510 nM
  TGI: 8.06 µM
RXF 393 renal
  GI50: 1.13 µM
  TGI: 2.69 µM
SK-OV-3 ovarian
  GI50: 1.41 µM
  TGI: 4 µM
SNB-19 CNS
  GI50: 1640 nM
  TGI: 6.65 µM
UACC-62 melanoma
  GI50: 878 nM
  TGI: 1.98 µM

## O=C(NCc1cn(Cc2cccc(Oc3ccccc3)c2)nn1)c1cccnc1Nc1ccc(F)cc1
CAKI-1 renal
  GI50: 64200 nM
  TGI: > 100 µM
EKVX NSCLC
  GI50: 25300 nM
  TGI: > 100 µM
IGROV1 ovarian
  GI50: 30700 nM
  TGI: > 100 µM
LOX IMVI melanoma
  GI50: 61300 nM
  TGI: > 100 µM
NCI-H226 lung
  GI50: 38.6 µM
  TGI: > 100 µM
OVCAR-5 ovarian
  GI50: > 100000 nM
  TGI: > 100 µM
RXF 393 renal
  GI50: 5.69 µM
  TGI: 42 µM
SK-OV-3 ovarian
  GI50: 5.94 µM
  TGI: 36.1 µM
SNB-19 CNS
  GI50: 20700 nM
  TGI: > 100 µM
UACC-62 melanoma
  GI50: 6510 nM
  TGI: > 100 µM

## Cc1c2cnccc2c(C)c2c1c1ccccc1n2CCOC(=O)c1ccccc1
CAKI-1 renal
  TGI: 28 µM
EKVX NSCLC
  TGI: 47.9 µM
IGROV1 ovarian
  TGI: 42.7 µM
LOX IMVI melanoma
  TGI: 33.7 µM
NCI-H226 lung
  TGI: 70 µM
OVCAR-5 ovarian
  TGI: 69 µM
RXF 393 renal
  TGI: 27.3 µM
SK-OV-3 ovarian
  TGI: 25.5 µM
SNB-19 CNS
  TGI: 40.2 µM
UACC-62 melanoma
  TGI: 34.8 µM

## O=c1c2ccccc2nc(-c2cccc([N+](=O)[O-])c2)n1O
CAKI-1 renal
  TGI: > 100 µM
EKVX NSCLC
  TGI: > 100 µM
IGROV1 ovarian
  TGI: > 100 µM
LOX IMVI melanoma
  TGI: > 100 µM
NCI-H226 lung
  TGI: > 100 µM
OVCAR-5 ovarian
  TGI: > 100 µM
RXF 393 renal
  TGI: > 100 µM
SK-OV-3 ovarian
  TGI: > 100 µM
SNB-19 CNS
  TGI: > 100 µM
UACC-62 melanoma
  TGI: > 100 µM

## Nc1ccc(/C=C/c2ccc3ncccc3c2)cc1
CAKI-1 renal
  TGI: > 100 µM
EKVX NSCLC
  GI50: 31700 nM
  TGI: > 100 µM
IGROV1 ovarian
  GI50: > 100000 nM
  TGI: > 100 µM
LOX IMVI melanoma
  GI50: 75000 nM
  TGI: > 100 µM
NCI-H226 lung
  GI50: > 100 µM
  TGI: > 100 µM
OVCAR-5 ovarian
  GI50: > 100000 nM
  TGI: > 100 µM
RXF 393 renal
  GI50: 73.2 µM
  TGI: > 100 µM
SK-OV-3 ovarian
  GI50: > 100 µM
  TGI: > 100 µM
SNB-19 CNS
  GI50: > 100000 nM
  TGI: > 100 µM
UACC-62 melanoma
  GI50: > 100000 nM
  TGI: > 100 µM

## O=C1NN2CC(c3ccccc3)=NN=C2c2ccccc21
CAKI-1 renal
  GI50: 33500 nM
  TGI: > 100 µM
EKVX NSCLC
  GI50: 31300 nM
  TGI: > 100 µM
IGROV1 ovarian
  GI50: 42800 nM
  TGI: > 100 µM
LOX IMVI melanoma
  GI50: 22600 nM
  TGI: 47 µM
NCI-H226 lung
  GI50: 22.8 µM
  TGI: 57.8 µM
OVCAR-5 ovarian
  GI50: 37900 nM
  TGI: > 100 µM
RXF 393 renal
  GI50: 23 µM
  TGI: 48.4 µM
SK-OV-3 ovarian
  GI50: 24.2 µM
  TGI: 51 µM
SNB-19 CNS
  GI50: 20500 nM
  TGI: 44.7 µM
UACC-62 melanoma
  GI50: 22600 nM
  TGI: 49.5 µM

## CN1CCN(Cc2ccc(NC(=O)c3cncc(C#Cc4cnc(N)c5ncccc45)c3)cc2C(F)(F)F)CC1
CAKI-1 renal
  GI50: 231 nM
  TGI: 4.07 µM
EKVX NSCLC
  GI50: 589 nM
  TGI: 15.5 µM
IGROV1 ovarian
  GI50: 175 nM
  TGI: 2.58 µM
LOX IMVI melanoma
  GI50: 216 nM
  TGI: 1.33 µM
NCI-H226 lung
  GI50: 0.267 µM
  TGI: 12.5 µM
OVCAR-5 ovarian
  GI50: 372 nM
  TGI: 1.78 µM
RXF 393 renal
  GI50: 0.26 µM
  TGI: 1.09 µM
SK-OV-3 ovarian
  GI50: 0.391 µM
  TGI: 9.07 µM
SNB-19 CNS
  GI50: 2110 nM
  TGI: 11.8 µM
UACC-62 melanoma
  GI50: 341 nM
  TGI: 1.93 µM
